“Also recorded” adds a separate entry of the source. Structures can show the parent of a compound that is named as a salt.
Key:
[1] = system: Streptozotocin-induced DR model in rat; assay: Streptozotocin-induced DR model in rat (STZ rat model); assay type: in vivo; conditions: STZ diabetic rats, vs vehicle
Method: B-9 Streptozotocin-Induced DR Model in Rat (STZ Rat Model)
135 male 6-week-old male SD rats (200 to 250 g) were randomized to become diabetic or non-diabetic. Following an overnight fast, SD rats were assigned to become diabetic by receiving a single intraperitoneal injection of streptozotocin (55 mg per kg; Sigma-Aldrich, St. Louis, USA) diluted in 0.1M citrate buffer, pH 4.5. Rats were weighed and their blood glucose levels measured (Accu-check Advantage II Blood Glucose Monitor, Roche Diagnostics, USA). Only rats with blood glucose levels greater than 250 mg/dL were considered diabetic (Li et al. 2002). Insulin was administered three times per week to reduce mortality and promote weight gain (2 to 4 units s.c. Humulin NPH, Eli Lilly and Co., Indianapolis, Ind., USA). The pathological events that occur in the early stages of DR were evaluated. Functional read-out of retinal electrical signal in response to light stimulation “b-wave amplitude (μv)” represents inner retinal function. The retinal function ERG (Electroretinography) was tested 2 months after STZ injection according to the method disclosed in McCulloch et al., 2015 and animals were randomized into subgroups with same severity. The animals received treatment after randomization for 2 months and were terminated then after. […]

[2] = system: retinal ischemia reperfusion (I/R) in rat; assay: Sub-chronic changes in rat retinal structure after retinal ischemia reperfusion (I/R), therapeutic and prophylactic settings; assay type: in vivo, male Wistar Unilever rats; conditions: for IPL (inner plexiform layer) thickness: H&E sections
Source text: B-8 Evaluation of Sub-Chronic Changes in Rat Retinal Structure after Retinal Ischemia Reperfusion (I/R) Therapeutic and Prophylactic Settings
Six male Wistar Unilever rats were used per experimental group. On induction day, rats were anesthetized with an intraperitoneal injection of Rompun® and Ketavet® before the pupils of the right eyes were dilated with Alcain eye drops and in addition treated with Vigamox® eye drops. The left eye is covered with Bepanthen® eye cream. Under deep anesthesia, the retina and the optic nerve were examined by optical coherence tomography (OCT) as a baseline measurement. The induction was done as the anterior chamber was punctured with a 30 G needle. Through a tube, 0.9% NaCl solution was pumped into the anterior chamber with a pressure 120 mm Hg. The pressure is regulated with a blood pressure cuff. The intraocular pressure (IOP) was elevated for 45 min. The procedure was successful as the eyeballs discolored because of vascular obstruction. After 45 min, the needle was removed, eye cream was put on the right eye and the animal could wake up. Compound (e.g. example 3, formula I-E-R) or its vehicle were orally applied, once daily (QD). The application volume was 5 mL/kg. In prophylactic setting, animals started the treatment 2 days before induction and received an intravenous (IV) bolus of compound (e.g. example 3, formula I-E-R) (i.v. 3 mg/kg in rat plasma) 15 minutes before induction. Treatment continued then after for 21 days. In the therapeutic setting, animals received an intravenous (IV) bolus of compound (e.g. example 3, formula I-E-R) (i.v. 3 mg/kg in rat plasma) 15 minutes after induction. Treatment continued then after for 21 days; once daily (3 mg/kg, PO QD). At day 7 and day 21, the retina and the optic nerve were examined by optical coherence tomography (OCT). The retinal function was evaluated by the ERG (Electroretinography) at day 7 and day 21 post induction according to the method disclosed in McCulloch et al., 2015. Functional read-out of retinal electrical signal in response to light stimulation “b-wave amplitude (μv)” represents inner retinal function. Then the eyes were collected for histopathology and preserved in Davidson's solution. The eye sections were stained with hematoxylin and eosin staining. The total retinal thickness and the inner plexiform layer thickness was measured at 1000 μm distances from the optic nerve using (Microscope Software ZEN, Zeiss, Germany).
Neuroprotection: The inner plexiform layer (IPL) functions as a relay station for the vertical-information-carrying nerve cells, the bipolar cells, to connect the photoreceptor cells to the ganglion cells. The IPL layer thickness was measured in histological sections stained with (H&E).

For `CC(C)CN1CCN(c2ccc(-c3ccc(Cl)cc3N3CCC[C@@H](n4ncc(C(=O)O)c4C(F)F)C3)cc2)CC1` [Example 3, 1-{1-[4-Chloro-4′-(4-isobutylpiperazin-1-yl)[biphenyl]-2-yl]piperidin-3-yl}-5-(difluoromethyl)-1H-pyrazole-4-carboxylic acid hydrochloride], the “b wave amplitude (ERG, retinal function)” value ([1]; 15 mg/kg oral gavage QD for 2 months, started 2 months after STZ, hydrochloride, 15 mg/kg) was “significant higher b wave amplitude compared to vehicle treated animals; also recorded: reduces diabetic induced retinal dysfunction and diabetic retinopathy progression”, the “diabetic retinopathy disease progression (b wave values)” value ([1]; oral QD, chronic diabetic retinopathy model) was “prevented disease progression” and the “retinal structure and photoreceptors integrity (histology)” value ([2]; I/R rats vs IR only) was “the retinal structure was preserved, and the photoreceptors integrity was intact”. For the same compound, the “retinal thickness (histology)” value ([2]; I/R rats, 3 mg/kg PO QD for 21 days plus i.v. 3 mg/kg bolus, at 3 weeks vs IR only) was “significantly higher retinal thickness compared to IR only animals”, the “retinal structure / mean total retinal thickness by optical coherence tomography (OCT)” value ([2]; I/R rats, 1- and 3-weeks post induction vs IR only) was “protect retinal structure” and the “retinal function measured by ERG (b wave amplitude)” value ([2]; I/R rats, one week and 3 weeks post induction vs IR, hydrochloride) was “significant difference in retinal function; also recorded: reduces ischemia induced retinal dysfunction”. For the same compound, the “IPL (inner plexiform layer) thickness” value ([2]; I/R rats, prophylactic setting (FIG. 4A)) was “preserved” and the “IPL (inner plexiform layer) thickness” value ([2]; I/R rats, therapeutic setting (FIG. 4B)) was “preserved”.
